Where “and” joins values, the source holds several entries; their conditions need not be identical. Identical values can stand only once. Like-named read-outs stand apart in the source and are kept apart here.
Key:
HBV = HBV antiviral assay in confluent 2.2.15 cell cultures (HBV DNA, quantitative blot hybridization); format: cell-based, Hepatitis B Virus
Description: EC50, EC90 and CC50 values (±standard deviations [S.D.]) were calculated by linear regression analysis using data combined from all treated cultures (Korba and Gerin, 1992; Okuse et al., 2005). […] Selectivity index (S.I.) was calculated as CC50/EC90 for HBV assays and CC50/EC50 for HCV assays. EC90 values were used for calculation of the S.I. in HBV assays since at least a 3-fold depression of HBV DNA levels is typically required to achieve statistical significance in this assay system (Korba and Gerin, 1992).

2.2.15 cells = test: Cytotoxicity by neutral red dye uptake in 2.2.15 cells; settings: confluent 2.2.15 cultures, nine daily doses, neutral red uptake
Description: (§1) HBV antiviral assays were conducted as previous described (Korba and Gerin, 1992).
(§2) EC50, EC90 and CC50 values (±standard deviations [S.D.]) were calculated by linear regression analysis using data combined from all treated cultures (Korba and Gerin, 1992; Okuse et al., 2005). […] Selectivity index (S.I.) was calculated as CC50/EC90 for HBV assays and CC50/EC50 for HCV assays. EC90 values were used for calculation of the S.I. in HBV assays since at least a […] depression of HBV DNA levels is typically required to achieve statistical significance in this assay system (Korba and Gerin, 1992). For combination treatments, EC50, EC90, CC50 and S.I. are presented for the first compound listed. The molar ratio of the compounds in each combination is also indicated.

Wild-type HBV = test: 5-day transient transfection assay in Huh7 cells, intracellular HBV RI by Southern blot; format: cell-based, Hepatitis B Virus; settings: Wild-type, Huh7 transient transfection; for EC50: read-out: EC50
HBV Mutant L180M/M204V = test: as above; format: cell-based, Hepatitis B Virus
Description: (§3) Activity against LMV-resistant (Allen et al., 1998) and ADV-resistant (Angus et al., 2003) HBV mutants was performed in a 5-day assay using a transient transfection method as previously described (Iyer et al., 2004). Antiviral activity was determined by quantitative Southern blot hybridization of intracellular HBV DNA replication intermediates (HBV RI).

HBV Mutant L180M = test: as above; format: cell-based, Hepatitis B Virus
Description: as §3

HBV Mutant M204I = test: as above; format: cell-based, Hepatitis B Virus
Description: as §3

HBV Mutant M204V = test: as above; format: cell-based, Hepatitis B Virus
Description: as §3

HBV Mutant N236T = test: as above; format: cell-based, Hepatitis B Virus
Description: as §3

[1] = test system: HCV replicon, sub-genomic CON1, genotype 1b; test: 3-day HCV replicon assay in AVA5 cells (intracellular HCV RNA, blot hybridization); format: cell-based, Hepatitis C Virus; settings: Genotype 1b replicon; for EC50 / EC90: 3 days, first compound listed for combinations
Description: (§4) Antiviral activity of test compounds was assessed in a 3-day assay using the stably-expressing HCV replicon cell line, AVA5 (sub-genomic CON1, genotype 1b) (Blight et al., 2000) maintained as sub-confluent cultures on 96-well plates as previously described (Okuse et al., 2005). Antiviral activity was determined by blot hybridization analysis of intracellular HCV RNA (normalized to the level of cellular B-actin RNA in each culture sample) and cytotoxicity was assessed by neutral red dye uptake after 3 days of treatment. Additional studies were performed using Huh7 cells containing another HCV replicon, H/FL-Neo, a genotype 1a full length construct (Blight et al., 2003). For studies involving human serum, standard culture medium (which contains 10% fetal bovine serum) and assay conditions were maintained.
as §2

AVA5 cells = test: Cytotoxicity by neutral red dye uptake in AVA5 cells; format: cell-based; settings: Genotype 1b replicon, 3 days
HCV replicon = test: Primary HCV replicon cell assay; format: cell-based, Hepatitis C Virus
Description: as §4, §2

[2] = Primary HCV replicon cell assay, cytotoxicity; settings: human, HCV replicon cells (primary assay), CC50, primary assay
Description: as §4, §2

[3] = Cytotoxicity by neutral red dye uptake in 2.2.15 cells; settings: human
Description: as §1, §2

[4] = Cytotoxicity by neutral red dye uptake in AVA5 cells; format: cell-based; settings: human, AVA5 cells (HCV replicon, sub-genomic CON1), Genotype 1b replicon
[5] = test system: HCV replicon H/FL-Neo, genotype 1a full length; test: HCV replicon assay in Huh7 cells containing H/FL-Neo; format: cell-based, Hepatitis C Virus; settings: Genotype 1a replicon
Description: as §4, §2

[6] = Cytotoxicity by neutral red dye uptake in Huh7 cells containing H/FL-Neo; format: cell-based; settings: human; Genotype 1a replicon
HCV replication = test: HCV replicon assay, 6 days total duration, NTZ monotherapy pre-treatment and combination therapy; format: cell-based; settings: Hepatitis C virus, 144 h, first named drug for combinations
Description: as §4, with “Antiviral activity of test compounds was assessed in a 3-day assay using the stably-expressing” left out
as §2

[7] = 2.2.15 cells, nine daily doses, read-out: Extracellular virion DNA EC50
[8] = 2.2.15 cells, nine daily doses, read-out: Extracellular virion DNA EC90
[9] = 2.2.15 cells, nine daily doses, read-out: Intracellular HBV RI EC50
[10] = 2.2.15 cells, nine daily doses, read-out: Intracellular HBV RI EC90

CC(C)(C)C(=O)OCOP(=O)(COCCn1cnc2c(N)ncnc21)OCOC(=O)C(C)(C)C [ADV, adefovir dipovoxil]
EC50 (HBV; [7]): 1 ± 0.2 µM | EC90 (HBV; [8]): 3 ± 0.3 µM | CC50 (2.2.15 cells): > 300 µM | EC90 (Wild-type HBV): 7 ± 0.8 µM | EC50 (Wild-type HBV): 2 ± 0.2 µM | EC50 (HBV Mutant L180M/M204V; L180M/M204V, read-out: EC50): 2.5 ± 0.3 µM | EC90 (HBV Mutant L180M/M204V; L180M/M204V, read-out: EC90): 7.6 ± 0.8 µM | EC50 (HBV Mutant L180M; L180M, read-out: EC50): 2.6 ± 0.3 µM | EC90 (HBV Mutant L180M; L180M, read-out: EC90): 7.3 ± 0.8 µM | EC50 (HBV Mutant M204I; M204I, read-out: EC50): 2.5 ± 0.3 µM | EC90 (HBV Mutant M204I; M204I, read-out: EC90): 8.5 ± 1 µM | EC50 (HBV Mutant M204V; M204V, read-out: EC50): 1.5 ± 0.2 µM | EC90 (HBV Mutant M204V; M204V, read-out: EC90): 7.2 ± 0.8 µM | EC50 (HBV Mutant N236T; N236T, read-out: EC50): 11 ± 1.3 µM | EC90 (HBV Mutant N236T; N236T, read-out: EC90): 32 ± 3.6 µM

O=C(Nc1ncc(Cl)s1)c1ccccc1O [RM4848]
EC50 (HBV; [7]): 0.37 ± 0.07 µM | EC90 (HBV; [8]): 1.7 ± 0.2 µM | CC50 (2.2.15 cells): > 100 µM | EC50 [1]: > 20 µM | EC90 [1]: > 20 µM | CC50 (AVA5 cells): 15 ± 0.1 µM

CCCCS(=O)(=O)c1cnc(NC(=O)c2ccccc2O)s1
melting point: 235 to 236 °C

CC(=O)Oc1ccccc1C(=O)Nc1nc(S(C)(=O)=O)cs1 [Compound 62, 2-{[4-(methylsulfonyl)-1,3-thiazol-2-yl]carbamoyl}phenyl acetate]
EC50 (HCV replicon; Hepatitis C virus): > 10 µM | EC90 (HCV replicon; Hepatitis C virus): > 10 µM | CC50 at 3 days [2]: > 100 µM

CC(=O)Oc1ccccc1C(=O)Nc1ncc(S(C)(=O)=O)s1 [Compound 7, 2-(5-(methylsulfonyl)thiazol-2-ylcarbamoyl)phenyl acetate]
EC50 (HCV replicon; Hepatitis C virus): > 10 µM | EC90 (HCV replicon; Hepatitis C virus): > 10 µM | CC50 at 3 days [2]: 20 µM

Nc1ccn([C@@H]2CS[C@H](CO)O2)c(=O)n1 [LMV, lamivudine]
Selectivity Index Virion (HBV; CC50/EC90, extracellular virion DNA): 15646 | Selectivity Index RI (HBV; CC50/EC90, intracellular HBV RI): 4267 | EC50 (HBV; Hepatitis B virus, read-out: Intracellular HBV RI EC50): 0.16 ± 0.03 µM | EC50 (HBV; Hepatitis B virus, 2.2.15 cells, Table 3 experiment, read-out: HBV R.I. EC50): 0.16 ± 0.02 µM | EC90 (HBV; Hepatitis B virus, 2.2.15 cells, Table 3 experiment, read-out: HBV R.I. EC90): 0.56 ± 0.07 µM | EC50 (HBV; Hepatitis B virus, 2.2.15 cells, Table 3 experiment, read-out: Virion production EC50): 0.05 ± 0.01 µM | EC90 (HBV; Hepatitis B virus, 2.2.15 cells, Table 3 experiment, read-out: Virion production EC90): 0.15 ± 0.02 µM | EC50 (HBV; Hepatitis B virus, 2.2.15 cells, nine daily doses, read-out: Extracellular virion DNA EC50): 0.05 ± 0.01 µM | EC90 (HBV; Hepatitis B virus, 2.2.15 cells, nine daily doses, read-out: Extracellular virion DNA EC90): 0.15 ± 0.02 µM | EC90 (HBV; Hepatitis B virus, 2.2.15 cells, nine daily doses, read-out: Intracellular HBV RI EC90): 0.55 ± 0.06 µM | CC50 at 9 days [3]: 2350 ± 88 µM | EC90 (Wild-type HBV; Hepatitis B virus, Huh-7): 0.9 ± 0.2 µM | EC50 (Wild-type HBV; Hepatitis B virus, Huh-7): 0.2 ± 0.1 µM | EC50 (HBV Mutant L180M/M204V; Hepatitis B virus, Huh-7): > 100 µM | EC90 (HBV Mutant L180M/M204V; Hepatitis B virus, Huh-7): > 100 µM | EC50 (HBV Mutant L180M; Hepatitis B virus, Huh-7): 16 ± 2 µM | EC90 (HBV Mutant L180M; Hepatitis B virus, Huh-7): 46 ± 5.6 µM | EC50 (HBV Mutant M204I; Hepatitis B virus, Huh-7): > 100 µM | EC90 (HBV Mutant M204I; Hepatitis B virus, Huh-7): > 100 µM | EC50 (HBV Mutant M204V; Hepatitis B virus, Huh-7): > 100 µM | EC90 (HBV Mutant M204V; Hepatitis B virus, Huh-7): > 100 µM | EC50 (HBV Mutant N236T; Hepatitis B virus, Huh-7): 0.3 ± 0.1 µM | EC90 (HBV Mutant N236T; Hepatitis B virus, Huh-7): 1.2 ± 0.2 µM

CCCCSc1cnc(NC(=O)c2ccccc2OC(C)=O)s1
melting point: 100 to 101 °C

Cc1cccc(C(=O)Nc2ncc(Cl)s2)c1O [RM4851]
EC50 (HBV; [7]): > 10 µM | EC90 (HBV; [8]): > 10 µM | EC50 (HBV; [9]): > 10 µM | EC90 (HBV; [10]): > 10 µM | CC50 (2.2.15 cells): > 100 µM | EC50 [1]: > 20 µM | EC90 [1]: > 20 µM | CC50 (AVA5 cells): 5.6 ± 0.3 µM

CSc1cnc(NC(=O)c2cccc(OC(C)=O)c2)s1
melting point: 135.2 to 136.2 °C

C[C@@]1(O)[C@H](O)[C@@H](CO)O[C@H]1n1ccc(N)nc1=O [2′CmeC, 2′-C-methyl cytidine]
Selectivity Index ([1]; CC50/EC50): >188 | EC50 ([1]; Hepatitis C virus, Ava5, 72 h): 1.6 ± 0.2 µM | EC90 ([1]; Hepatitis C virus, Ava5, 72 h): 8.3 ± 0.7 µM | CC50 at 3 days [4]: > 300 µM | Selectivity Index ([5]; CC50/EC50): >167 | EC50 ([5]; Hepatitis C virus, Huh-7): 1.8 ± 0.2 µM | EC90 ([5]; Hepatitis C virus, Huh-7): 8.1 ± 0.8 µM | CC50 at 3 days [6]: > 300 µM | EC50 (HCV replication): 1.3 ± 0.2 µM | EC90 (HCV replication): 5.8 ± 0.9 µM

CSc1cnc(NC(=O)c2ccccc2O)s1
melting point: 225 to 226 °C

CS(=O)(=O)Oc1ccccc1C(=O)Nc1nccs1 [Compound 11, 2-(thiazol-2-ylcarbamoyl)phenyl methanesulfonate]
EC50 (HCV replicon; Hepatitis C virus): > 10 µM | EC90 (HCV replicon; Hepatitis C virus): > 10 µM | CC50 at 3 days [2]: > 100 µM | melting point: 185.5 to 187.8 °C

CS(=O)(=O)c1csc(NC(=O)c2ccccc2O)n1 [Compound 60, 2-hydroxy-N-(4-(methylsulfonyl)thiazol-2-yl)benzamide]
EC90 (HCV replicon): 0.654 µM | EC90 (HCV replicon; Hepatitis C virus): 0.585 µM

Cc1ccc(C(=O)Nc2ncc(Cl)s2)c(O)c1 [RM4852]
EC50 (HBV; [7]): 1 ± 0.1 µM | EC90 (HBV; [8]): 3.3 ± 0.3 µM | EC50 (HBV; [9]): 2.7 ± 0.3 µM | EC90 (HBV; [10]): 6.3 ± 0.7 µM | CC50 (2.2.15 cells): > 100 µM | EC50 [1]: > 20 µM | EC90 [1]: > 20 µM | CC50 (AVA5 cells): 6.7 ± 0.4 µM

CCCCSc1cnc(NC(=O)c2ccccc2O)s1
melting point: 180 to 181 °C

CSc1cnc(NC(=O)c2ccc(OC(C)=O)cc2)s1
melting point: 193.3 to 195.5 °C and 193.5 to 195.5 °C

Reference: patent US8895752B2, “Alkylsulfonyl-substituted thiazolide compounds” (priority 2007, dated 2014)
